What was measured:
[1] = set-up: method as in PMID 25625276; details: ref [41]; cited from earlier work
BAC ATXN2-Q22 mice = assay: Survival / tolerability of treated BAC ATXN2-Q22 mice; format: in vivo, mouse; details: 4 mg/kg intraperitoneal, every other day over 10 days, n = 4
Excerpt: Our study identified 11 compounds known to inhibit HSP90, including one that was identified in our original pilot screen. […] 17-DMAG inhibited transcription of ATXN2 in HEK-293 cells in a dose-dependent manner and reduced the abundance of endogenous and mutant ATXN2 proteins in HEK-293 cells (Figs. 3 and 4). […] Toxicity was evident in our in vivo experiment as well. […] However, like for 17-DMAG, BAC ATXN2-Q22 mice treated with HSP990 had 80% reduced ATXN2 protein abundance in the cerebellum (Fig. 5B).
(§1) Control-treated mice included vehicle alone.

ATXN2 mRNA = assay: Cerebellar ATXN2 mRNA by qPCR in BAC ATXN2-Q22 mice; details: 4 mg/kg intraperitoneal, every other day over 10 days
ATXN2 protein = assay: Cerebellar ATXN2 protein by Western blotting in BAC ATXN2-Q22 mice; format: in vivo, mouse; details: 4 mg/kg intraperitoneal, every other day over 10 days
Excerpt: Figure 5 Effect of HSP90 inhibitors on ATXN2 cerebellar expression in vivo in BAC ATXN2-Q22 mice. Inhibition of ATXN2 expression by 17-DMAG (A) and HSP990 (B) versus vehicle controls. Mouse ID numbers are shown above the lanes. Western blot analysis showing upregulation of HSP70 expression following 17-DMAG treatment, which indicates successful HSP90 target engagement. The human transgenic ATXN2 protein is indicated as ATXN2-Q22 and the endogenous mouse protein as mATXN2. Values shown are mean and SD. Probabilities are from Student’s t tests: ∗p < 0.05; ∗∗∗p < 0.001. Three blots were quantified. ATXN2, ataxin-2; BAC, bacterial artificial chromosome; 17-DMAG, 17-dimethylaminoethylamino-17-demethoxygeldanamycin; HSP, heat shock protein.
as §1
Proteins were prepared, separated on precast polyacrylamide gels (Bio-Rad), transferred to Hybond (Amersham), and detected by enhanced chemiluminescence (Amersham) as previously described ([12], [27]). […]

SMILES: COc1cccc(-c2cc(F)ccc2[C@H]2Cc3nc(N)nc(C)c3C(=O)N2)n1 [HSP990]
- Toxicity in clinical trial [1]: dose-limiting neurotoxicity
- Survival of treated mice (BAC ATXN2-Q22 mice): half of the mice we treated with HSP990 did not survive treatment
- Reduced ATXN2 mRNA abundance in cerebella (ATXN2 mRNA): 20%
- ATXN2 mRNA abundance in cerebella (ATXN2 mRNA; […]): 78.54 ± 3.9%
- Reduced ATXN2 protein abundance in the cerebellum (ATXN2 protein): 80%
